Measurements as given in patent publication US8937089B2, “Synergistic mixtures of anthranilamide invertebrate pest control agents” (priority 2004, dated 2015).

Legend:
Assay in all cases: whole plant or invertebrate
Type in all cases: in vivo
[1] = tested on: silverleaf whitefly (Bemisia argentifolii Bellows and Perring); details: Table 2B
How it was run: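 Whitefly-egg-infested 12–14-day-old cotton plants sprayed with compound in 10% acetone/90% water plus 300 ppm non-ionic surfactant, in triplicate. Plants then held 13 days at 28 °C and 50–70% relative humidity before mortality assessment.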

[2] = tested on: western flower thrip (Frankliniella occidentalis Pergande); details: single compound, spray, 7 days
How it was run: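 Compounds in 10% acetone/90% water with 300 ppm non-ionic surfactant were sprayed onto 5- to 7-day-old bean plants, 3 replicates. After 1 h drying, 22–27 adult thrips were added per unit. Units were held 7 days at 25° C, 45–55% RH, assessing contact and/or systemic control.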

[3] = tested on: potato leafhopper (Empoasca fabae Harris); details: alone
How it was run: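 Bean plants (5–6 days old, one primary leaf excised) were sprayed with 1 mL of compound in 10% acetone/water with 300 ppm X-77 surfactant, 3 replicates. After drying for 1 h, each unit was infested with 5 adult leafhoppers. Units were held 6 days at 19–21 °C and 50–70% RH.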

[4] = tested on: corn planthopper (Peregrines maidis); details: Corn Plant Hopper
How it was run: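 Compounds in 10% acetone/90% water with 300 ppm X-77 surfactant sprayed (3 replications) onto 3- to 4-day-old corn plants, dried 1 h, then infested with 10–20 corn planthopper nymphs aged 18–20 days. Held 6 days at 19-21° C. and 50-70% relative humidity; contact and/or systemic control assessed.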

[5] = tested on: cotton melon aphid (Aphis gossypii Glover)
How it was run: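 Cotton plants (6–7 days old) pre-infested with 30–40 aphids by cut-leaf method, sprayed with compound (ppm) in 10% acetone/90% water with 300 ppm X-77 surfactant, three replicates. Held 6 days at 19–21 °C, 50–70% RH; contact and/or systemic control assessed.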

[6] = tested on: green peach aphid (Myzus persicae Sulzer); details: Green Peach Aphid
How it was run: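 Compounds formulated in 10% acetone/water with 300 ppm X-77 surfactant were atomized onto aphid-infested radish seedlings, with three replicates per treatment. Infestation was 30–40 aphids transferred on excised leaf pieces, covering contact and systemic exposure. Test units stayed 6 days in a growth chamber at 19–21 °C and 50–70% relative humidity.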

[7] = tested on: diamondback moth (Plutella xylostella)
Method: The test compounds were dissolved in water. […] Serial dilutions were made to obtain the appropriate concentrations. To obtain the desired mixture concentrations of each compound, twice the desired concentration of each of the two mixture partner compounds were mixed together in equal volumes.
The diluted solutions of the test compounds were sprayed to run-off on three-week-old tomato plants. The plants were placed on a rotating turntable sprayer (10 rpm). Test solutions were applied using a flat fan air-assisted nozzle (Spraying Systems 122440) at 10 psi (69 kPa). […] The leaves were cut into pieces, which were placed singly into 5.5 cm-by-3.5 cm cells of a sixteen-cell plastic tray. Each cell contained a 2.5-cm square of moistened chromatography paper to prevent desiccation. One insect was placed in each cell. There two trays per treatment. Trays were held in the growth chamber at 25° C., 16-hour light:8-hour dark, 60% relative humidity for 4 days.
For evaluating control of diamondback moth (Plutella xylostella), cabbage (var. Stonehead) plants were grown in Metromix potting soil in 10-cm pots in aluminum trays to test size (28 days, 3-4 full leaves) the plants were sprayed to the point of runoff using the turntable sprayer as described in Test I. Test compounds were formulated and sprayed on test plants as described for Test I. After drying for 2 hours, the treated leaves were excised and infested with one cabbage looper per cell and covered. The test units were placed on trays and put in a growth chamber at 25° C. and 60% relative humidity for 4 days.

`Cc1ccc(/N=C/N(C)/C=N/c2ccc(C)cc2C)c(C)c1` [Amitraz] gave a mortality at 500 ppm ([1]; Bemisia argentifolii, in Gossypium hirsutum, rate 500 ppm, read-out: % mortality (obs)) of 5%, a mortality at 1000 ppm ([1]; Bemisia argentifolii, in Gossypium hirsutum, rate 1000 ppm, read-out: % mortality (obs)) of 0% and a mortality at 2000 ppm ([1]; Bemisia argentifolii, in Gossypium hirsutum, rate 2000 ppm, read-out: % mortality (obs)) of 0%. It also gave a mortality at 10 ppm ([2]; Frankliniella occidentalis, 168 h, rate 10 ppm, read-out: % mortality (obs)) of 40%, a mortality at 100 ppm ([2]; Frankliniella occidentalis, 168 h, rate 100 ppm, read-out: % mortality (obs)) of 30% and a mortality at 1000 ppm ([2]; Frankliniella occidentalis, 168 h, rate 1000 ppm, read-out: % mortality (obs)) of 20%. For the same compound, the mortality at 10 ppm ([3]; Empoasca fabae, rate 10 ppm, read-out: % mortality (obs)) was 0%, the mortality at 100 ppm ([3]; Empoasca fabae, rate 100 ppm, read-out: % mortality (obs)) was 7% and the mortality at 1000 ppm ([3]; Empoasca fabae, rate 1000 ppm, read-out: % mortality (obs)) was 13%. For the same compound, the mortality at 5 ppm ([4]; rate 5 ppm, read-out: % mortality (obs)) was 6%, the mortality at 10 ppm ([4]; rate 10 ppm, read-out: % mortality (obs)) was 3% and the mortality at 50 ppm ([4]; rate 50 ppm, read-out: % mortality (obs)) was 5%. For the same compound, the mortality at 10 ppm ([5]; Aphis gossypii, rate 10 ppm, read-out: % mortality (obs)) was 20%, the mortality at 100 ppm ([5]; Aphis gossypii, rate 100 ppm, read-out: % mortality (obs)) was 35% and the mortality at 1000 ppm ([5]; Aphis gossypii, rate 1000 ppm, read-out: % mortality (obs)) was 29%. It also gave a mortality at 10 ppm ([6]; Myzus persicae, in Raphanus sativus, rate 10 ppm, read-out: % mortality (obs)) of 16%, a mortality at 100 ppm ([6]; Myzus persicae, in Raphanus sativus, rate 100 ppm, read-out: % mortality (obs)) of 12% and a mortality at 1000 ppm ([6]; Myzus persicae, in Raphanus sativus, rate 1000 ppm, read-out: % mortality (obs)) of 34%. The mortality at 10 ppm ([7]; Plutella xylostella, in Brassica oleracea, rate 10 ppm, read-out: % mortality (obs)) was 70%, the mortality at 100 ppm ([7]; Plutella xylostella, in Brassica oleracea, rate 100 ppm, read-out: % mortality (obs)) was 20% and the mortality at 1000 ppm ([7]; Plutella xylostella, in Brassica oleracea, rate 1000 ppm, read-out: % mortality (obs)) was 50%.
For `N#CCNC(=O)c1cnccc1C(F)(F)F` [Flonicamid], the “% mortality (obs)” value ([1]; rate 0.1 ppm) was 2%, the “% mortality (obs)” value ([1]; rate 0.2 ppm) was 2% and the “% mortality (obs)” value ([1]; rate 0.5 ppm) was 2%. The “% mortality (obs)” value ([2]; rate 10 ppm) was 20%, the “% mortality (obs)” value ([2]; rate 100 ppm) was 80% and the “% mortality (obs)” value ([2]; rate 1000 ppm) was 70%. For the same compound, the “% mortality (obs)” value ([3]; rate 100 ppm) was 100%, the “% mortality (obs)” value ([3]; rate 400 ppm) was 100% and the “% mortality (obs)” value ([3]; rate 1000 ppm) was 40%. For the same compound, the “% mortality (obs)” value ([4]; rate 2 ppm) was 52%, the “% mortality (obs)” value ([4]; rate 15 ppm) was 42% and the “% mortality (obs)” value ([4]; rate 150 ppm) was 90%. For the same compound, the “% mortality (obs)” value ([5]; rate 0.2 ppm) was 9%, the “% mortality (obs)” value ([5]; rate 1 ppm) was 46% and the “% mortality (obs)” value ([5]; rate 5 ppm) was 92%. For the same compound, the “% mortality (obs)” value ([6]; rate 0.1 ppm) was 16%, the “% mortality (obs)” value ([6]; rate 0.2 ppm) was 10% and the “% mortality (obs)” value ([6]; rate 2 ppm) was 33%. For the same compound, the “% mortality (obs)” value ([7]; rate 1 ppm) was 0%, the “% mortality (obs)” value ([7]; rate 15 ppm) was 60% and the “% mortality (obs)” value ([7]; rate 1000 ppm) was 30%.
For Dieldrin, the “% mortality (obs)” value ([1]; rate 10 ppm) was 0%, the “% mortality (obs)” value ([1]; rate 100 ppm) was 0% and the “% mortality (obs)” value ([1]; rate 1000 ppm) was 0%. The “% mortality (obs)” value ([2]; rate 10 ppm) was 10%, the “% mortality (obs)” value ([2]; rate 100 ppm) was 20% and the “% mortality (obs)” value ([2]; rate 1000 ppm) was 30%. For the same compound, the “% mortality (obs)” value ([3]; rate 2.5 ppm) was 27%, the “% mortality (obs)” value ([3]; rate 5 ppm) was 100% and the “% mortality (obs)” value ([3]; rate 10 ppm) was 100%. For the same compound, the “% mortality (obs)” value ([4]; rate 0.1 ppm) was 37%, the “% mortality (obs)” value ([4]; rate 0.2 ppm) was 57% and the “% mortality (obs)” value ([4]; rate 0.3 ppm) was 71%. The “% mortality (obs)” value ([5]; rate 1 ppm) was 13%, the “% mortality (obs)” value ([5]; rate 5 ppm) was 26% and the “% mortality (obs)” value ([5]; rate 50 ppm) was 66%. For the same compound, the “% mortality (obs)” value ([6]; rate 10 ppm) was 59%, the “% mortality (obs)” value ([6]; rate 100 ppm) was 43% and the “% mortality (obs)” value ([6]; rate 1000 ppm) was 41%. For the same compound, the “% mortality (obs)” value ([7]; rate 2 ppm) was 90%, the “% mortality (obs)” value ([7]; rate 2.5 ppm) was 100% and the “% mortality (obs)” value ([7]; rate 3 ppm) was 100%.
In the case of Pyridaben, the “% mortality (obs)” value ([1]; rate 20 ppm) is reported as 21%, the “% mortality (obs)” value ([1]; rate 30 ppm) is reported as 55% and the “% mortality (obs)” value ([1]; rate 50 ppm) is reported as 73%. For the same compound, the “% mortality (obs)” value ([2]; rate 10 ppm) was 30%, the “% mortality (obs)” value ([2]; rate 80 ppm) was 50% and the “% mortality (obs)” value ([2]; rate 200 ppm) was 60%. The “% mortality (obs)” value ([3]; rate 1 ppm) was 0%, the “% mortality (obs)” value ([3]; rate 2.5 ppm) was 13% and the “% mortality (obs)” value ([3]; rate 10 ppm) was 100%. The “% mortality (obs)” value ([4]; rate 2 ppm) was 10%, the “% mortality (obs)” value ([4]; rate 2.5 ppm) was 2% and the “% mortality (obs)” value ([4]; rate 3 ppm) was 2%. For the same compound, the “% mortality (obs)” value ([5]; rate 1 ppm) was 11%, the “% mortality (obs)” value ([5]; rate 2 ppm) was 15% and the “% mortality (obs)” value ([5]; rate 10 ppm) was 71%. The “% mortality (obs)” value ([6]; rate 1 ppm) was 100%, the “% mortality (obs)” value ([6]; rate 10 ppm) was 14% and the “% mortality (obs)” value ([6]; rate 60 ppm) was 60%. For the same compound, the “% mortality (obs)” value ([7]; rate 100 ppm) was 100%, the “% mortality (obs)” value ([7]; rate 150 ppm) was 80% and the “% mortality (obs)” value ([7]; rate 200 ppm) was 100%.
Spinosad was tested, and the “% mortality (obs)” value ([1]; rate 100 ppm) was 66%, the “% mortality (obs)” value ([1]; rate 150 ppm) was 69% and the “% mortality (obs)” value ([1]; rate 300 ppm) was 95%. For the same compound, the “% mortality (obs)” value ([2]; rate 0.1 ppm) was 20%, the “% mortality (obs)” value ([2]; rate 0.5 ppm) was 60% and the “% mortality (obs)” value ([2]; rate 3 ppm) was 90%. For the same compound, the “% mortality (obs)” value ([3]; rate 30 ppm) was 73%, the “% mortality (obs)” value ([3]; rate 100 ppm) was 80% and the “% mortality (obs)” value ([3]; rate 110 ppm) was 47%. For the same compound, the “% mortality (obs)” value ([4]; rate 5 ppm) was 100%, the “% mortality (obs)” value ([4]; rate 10 ppm) was 100% and the “% mortality (obs)” value ([4]; rate 20 ppm) was 100%. For the same compound, the “% mortality (obs)” value ([5]; rate 10 ppm) was 16%, the “% mortality (obs)” value ([5]; rate 100 ppm) was 35% and the “% mortality (obs)” value ([5]; rate 1000 ppm) was 30%. The “% mortality (obs)” value ([6]; rate 10 ppm) was 25%, the “% mortality (obs)” value ([6]; rate 100 ppm) was 46% and the “% mortality (obs)” value ([6]; rate 1000 ppm) was 59%. For the same compound, the “% mortality (obs)” value ([7]; rate 10 ppm) was 100%, the “% mortality (obs)” value ([7]; rate 100 ppm) was 90% and the “% mortality (obs)” value ([7]; rate 1000 ppm) was 100%.
